In paper PMC6825286 (Proceedings of the National Academy of Sciences of the …, 2019):

Molecular target: T1, SghR (Agrobacterium tumefaciens, UniProt A0A2I4PGE9)
T1 sequence (A0A2I4PGE9 1-350): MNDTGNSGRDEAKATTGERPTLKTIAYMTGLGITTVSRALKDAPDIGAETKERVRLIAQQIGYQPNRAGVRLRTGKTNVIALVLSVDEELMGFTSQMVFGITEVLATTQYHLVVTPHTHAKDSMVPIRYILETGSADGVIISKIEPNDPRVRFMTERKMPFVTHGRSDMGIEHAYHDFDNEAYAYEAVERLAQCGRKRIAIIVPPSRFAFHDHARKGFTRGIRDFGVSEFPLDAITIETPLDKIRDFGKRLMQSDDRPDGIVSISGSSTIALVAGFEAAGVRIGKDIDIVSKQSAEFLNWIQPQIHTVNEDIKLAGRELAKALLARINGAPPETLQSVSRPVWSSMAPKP
Assay: EMSA, dissociation of SghR from biotin-labelled sghA promoter
Assay type: binding
Details: sucrose 50 and 500 µM; inducer that releases the repressor from DNA

OC[C@H]1O[C@@](CO)(O[C@H]2O[C@H](CO)[C@@H](O)[C@H](O)[C@H]2O)[C@@H](O)[C@@H]1O [sucrose]
EMSA, dissociation of SghR from biotin-labelled sghA promoter: gel shift analysis demonstrated that sucrose dissociated repressor SghR from the sghA promoter
